This is an account of results in ChEMBL document CHEMBL5154646, “Structure-guided optimization of 1H-imidazole-2-carboxylic acid derivatives affording potent VIM-Type metallo-β-lactamase inhibitors” (Eur J Med Chem, 2022).

A value given as a limit tells only on which side of the number the result lay.

What all share (set-up): species or system Bacteria
The nature of assay [1]: Inhibition of bacterial recombinant full length N-terminal-TEV-His6-tagged VIM-5 expressed in Escherichia coli Transetta using FC-5 as substrate preincubated with enzyme for 10 mins followed by substrate addition by fluorescence based analysis.
The nature of assay [2]: Inhibition of bacterial VIM-2 (27 to 266 residues) expressed in Escherichia coli Transetta (DE3) using FC-5 as substrate preincubated with enzyme for 10 mins followed by substrate addition by fluorescence based analysis.
A short description of assay [3]: Inhibition of bacterial IMP-1 (1 to 246 residues) expressed in Escherichia coli Transetta (DE3) using FC-5 as substrate preincubated with enzyme for 10 mins followed by substrate addition by fluorescence based analysis.
A short description of assay [4]: Inhibition of bacterial NDM-1 (1 to 270 residues) expressed in Escherichia coli Transetta (DE3) using FC-5 as substrate preincubated with enzyme for 10 mins followed by substrate addition by fluorescence based analysis.
Assay [5] is described as follows: Inhibition of bacterial recombinant full length C-terminal-TEV-His6-tagged VIM-1 expressed in Escherichia coli Transetta using FC-5 as substrate preincubated with enzyme for 10 mins followed by substrate addition by fluorescence based analysis.

The IC50 is the concentration at which inhibition is half-maximal.

With `N#CCCCn1ccnc1C(=O)O`, the half-inhibitory concentration (IC50) in assay [1] was 15.6 µM; in assay [2] it was 11.8 µM; in assay [3] it was 65.6 µM; in assay [4], more than 300 µM; in assay [5], 47.1 µM.

Turning to `O=C(O)c1nccn1Cc1ccccn1`, the IC50 in assay [1] is more than 300 µM; in assay [2], 5.54 µM; in assay [3] it was more than 300 µM; in assay [4], more than 300 µM; in assay [5], more than 300 µM.

On to `O=C(O)c1nccn1C1CNC1`, for which the concentration for half-maximal inhibition (IC50) is 104 µM in assay [1]; 68.1 µM in assay [2]; more than 300 µM in assay [3]; more than 300 µM in assay [4]; 26 µM in assay [5].

As to `CN(C)CCn1ccnc1C(=O)O`, the IC50 in assay [1], in assay [2], in assay [3], in assay [4] and in assay [5] was more than 300 µM in each case.

On to `C=CCn1ccnc1C(=O)O`, for which the IC50 in assay [1] is more than 300 µM; in assay [2], 46.4 µM; in assay [3], more than 300 µM; in assay [4] it was more than 300 µM; in assay [5], more than 300 µM.

As to `N#CCCn1ccnc1C(=O)O`, the IC50 is more than 300 µM in assay [1]; 22.2 µM in assay [2]; more than 300 µM in assay [3]; more than 300 µM in assay [4]; more than 300 µM in assay [5].

For the compound `O=C(O)c1nccn1Cc1ccco1`, the IC50 was 21 µM in assay [1]; 1.55 µM in assay [2]; 10.3 µM in assay [3]; more than 300 µM in assay [4]; 11.7 µM in assay [5].

On to `O=C(O)c1nccn1Cc1ccsc1`, for which the IC50 is 30.3 µM in assay [1]; 5.07 µM in assay [2]; more than 300 µM in assay [3]; more than 300 µM in assay [4]; 132 µM in assay [5].

For the compound `NC(=O)Cn1ccnc1C(=O)O`, the IC50 was more than 300 µM in assay [1]; 118 µM in assay [2]; more than 300 µM in assay [3]; more than 300 µM in assay [4]; more than 300 µM in assay [5].

For `O=C(O)c1nccn1C1CCC1`, the IC50 in assay [1] was more than 300 µM; in assay [2], 11.8 µM; in assay [3], 161 µM; in assay [4], more than 300 µM; in assay [5] it was 32.1 µM.

Take `Nc1cccc(Cn2ccnc2C(=O)O)c1`: the IC50 was more than 300 µM in assay [1]; 7.76 µM in assay [2]; more than 300 µM in assay [3]; more than 300 µM in assay [4]; more than 300 µM in assay [5].

As for `Nc1ccc(Cn2ccnc2C(=O)O)cc1`, the IC50 is more than 300 µM in assay [1]; 30.2 µM in assay [2]; more than 300 µM in assay [3]; more than 300 µM in assay [4]; more than 300 µM in assay [5].

For `CSCn1ccnc1C(=O)O`, the IC50 in assay [1] was 64 µM; in assay [2] it was 6.89 µM; in assay [3] it was 114 µM; in assay [4], more than 300 µM; in assay [5] it was 18 µM.

On to `CC(C(=O)O)n1ccnc1C(=O)O` (stereo not given), for which the IC50 is 32.5 µM in assay [1]; 52.4 µM in assay [2]; more than 300 µM in assay [3]; more than 300 µM in assay [4]; more than 300 µM in assay [5].

Regarding `O=C(O)c1nccn1Cc1cccc([N+](=O)[O-])c1`, the IC50 is 18.9 µM in assay [1]; 3.58 µM in assay [2]; more than 300 µM in assay [3]; more than 300 µM in assay [4]; more than 300 µM in assay [5].

As for `O=C(O)c1nccn1CCn1ccnn1`, the IC50 is 47.3 µM in assay [1]; 6.68 µM in assay [2]; more than 300 µM in assay [3]; more than 300 µM in assay [4]; more than 300 µM in assay [5].

In the case of `CCc1ccc(Cn2ccnc2C(=O)O)cc1`, the IC50 in assay [1] was 23.4 µM; in assay [2], 5.79 µM; in assay [3] it was more than 300 µM; in assay [4], more than 300 µM; in assay [5], more than 300 µM.

Turning to `O=C(O)c1nccn1C1COC1`, the IC50 in assay [1], in assay [2], in assay [3], in assay [4] and in assay [5] was more than 300 µM in each case.
